The results in this text go back to PubChem BioAssay (NCI).

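48-hour exposure; five concentrations; linearly interpolated endpoints. GI50 marks 50% less growth. TGI marks complete inhibition of growth.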 Where a SMILES comes first, the peptide text is derived from it. [ ]: non-standard residue; d: D form. The star is where a group is joined. NMeF = CN[CH](Cc1ccccc1)C(=O)O; NMeV = CN[CH](C(=O)O)C(C)C; Boc = CC(C)(C)OC(=O)*; OBn = c1ccc(CO*)cc1 Some results are limits rather than exact numbers.

Assay in all cases: inhibition of tumour cell growth, NCI panel, 48 h
Experiment [1] has as its system CCRF-CEM leukemia.
Experiment [2] relates to EKVX NSCLC.
For experiment [3], the system named is NCI-H226 lung.
The test system of experiment [4] is OVCAR-4 ovarian.
In experiment [5] the test system is RPMI-8226 leukemia.
For experiment [6], the system named is UACC-62 melanoma.
Experiment [7] concerns MALME-3M melanoma.
In experiment [8] the test system is TK-10 renal.
For experiment [9], the system named is RXF 393 renal.

With `CC1(C)CCc2cc3c(cc2O1)OC(C)(C)C1c2c(ccc4c2CCC(C)(C)O4)OC31` (stereo not drawn), the TGI in [1], in experiment [2], in experiment [3], in [4], in [5] and in [6] was greater than 100 µM each time.
`CCCNC(=O)c1cc2ccccc2cc1C(=O)OC`: the TGI in [1], in experiment [2], in experiment [7], in [3], in experiment [4] and in experiment [5] was greater than 100 µM in each case. The TGI in experiment [8] and in experiment [6] was greater than 100 µM in each case.
As to `CC1SC2=NC3=C(c4ccccc4C3=O)C(c3ccc(Br)cc3)N2C1=O` (stereo not drawn), the TGI in experiment [1], in [2], in experiment [7], in experiment [3], in experiment [4] and in experiment [5] was greater than 100 µM each time. Also, the TGI in experiment [8] and in experiment [6] was greater than 100 µM each time.
Regarding `COc1cc(C2[C@H]3C(=O)N(c4ccc(Cc5ccc(N6C(=O)[C@@H]7ON(c8ccccc8)C(c8cc(OC)c(OC)c(OC)c8)[C@@H]7C6=O)cc5)cc4)C(=O)[C@H]3ON2c2ccccc2)cc(OC)c1OC` (stereo partly drawn), the TGI in [1], in [2], in experiment [7], in [3], in [4] and in [5] was greater than 100 µM in each case. Also, the TGI in [9], in experiment [8] and in experiment [6] was greater than 100 µM each time.
Take `CC(C)O/C=C1\C(=O)C2(SCCS2)[C@H]2CCCC[C@@H]12`: the TGI is 73.2 µM in experiment [1]; greater than 100 µM in experiment [7]; greater than 100 µM in experiment [3]; greater than 100 µM in [4]; 81 µM in experiment [5]; 57.8 µM in experiment [9]. Also, the TGI was greater than 100 µM in [8] and 69.4 µM in experiment [6].
For `O=C1Cc2ccccc2N1/N=C\c1ccc(O)cc1`, the TGI in experiment [1], in experiment [2], in [7], in [3], in experiment [4] and in [5] was greater than 100 µM each time. In addition, the TGI in experiment [8] and in experiment [6] was greater than 100 µM in each case.
Regarding `CSc1nc2c(nc(N)n2C2OCC(O)C(O)C2O)c(=O)[nH]1` (stereo not drawn), the TGI in experiment [1], in experiment [2], in experiment [7], in experiment [3], in experiment [4] and in [9] was greater than 100 µM each time. Further, the TGI in experiment [8] and in experiment [6] was greater than 100 µM throughout.
Take `CNC1=C(C)C(=O)C(C)=C(C(C)(C)CC(=O)n2cc(F)c(=O)[nH]c2=O)C1=O`: the TGI in [1], in experiment [2], in experiment [7], in experiment [3], in [4] and in experiment [5] was greater than 100 µM throughout. The TGI in experiment [9], in experiment [8] and in experiment [6] was greater than 100 µM each time.
Take `Cn1c(=O)c(C(c2ccccc2)c2c(O)c3ccccc3n(C)c2=O)c(O)c2ccccc21`: the TGI in experiment [2] is greater than 100 µM; in experiment [7], greater than 100 µM; in [3] it was 65.9 µM; in experiment [4], greater than 100 µM; in experiment [5], greater than 100 µM; in experiment [9], greater than 100 µM. The TGI in [8] and in experiment [6] was greater than 100 µM each time.
In the case of `NNC(=O)CC(=O)Nc1ccccc1F`, the TGI in [1], in experiment [2], in experiment [7], in experiment [3], in [4] and in experiment [5] was greater than 100 µM in each case. Also, the TGI in experiment [9] and in experiment [6] was greater than 100 µM in each case.
As for `COc1ccc(CNc2nc3ccccc3nc2-c2cccs2)cc1OC`, the TGI in [1], in experiment [2], in [7], in [3], in experiment [5] and in experiment [9] was greater than 100 µM each time. Moreover, the TGI in experiment [8] was greater than 100 µM.
`CCN(CC)C(=O)c1c(N2CCOCC2)cc(N(CC)CC)oc1=O`: the TGI in experiment [1], in experiment [2], in experiment [7], in experiment [3], in experiment [4] and in experiment [5] was greater than 100 µM throughout. The TGI in experiment [9], in experiment [8] and in [6] was greater than 100 µM each time.
Take `OCCc1cnco1`: the TGI in experiment [1], in experiment [2], in experiment [3], in [4], in [5] and in [9] was greater than 100 µM in each case. The TGI in [8] and in experiment [6] was greater than 100 µM each time.
Turning to `CCC[CH2][Sn]1([CH2]CCC)[O]C(=O)C[S]1`, the GI50 is 0.324 µM in experiment [1]; 2.46 µM in [2]; 1.14 µM in experiment [7]; 1.93 µM in experiment [3]; 2.16 µM in experiment [4]; 0.455 µM in experiment [5]. For the same compound, the figures for the GI50 in experiment [9], in [8] and in experiment [6] were 0.573 µM, 1.55 µM and 1.35 µM, respectively. For the same compound, the TGI in experiment [1] is 1.57 µM; in experiment [2] it was 6.53 µM; in experiment [7], 2.52 µM; in experiment [3], 3.77 µM; in [4], 4.67 µM; in experiment [5], 3.57 µM. Also, the values for the TGI in [9], in experiment [8] and in [6] were 1.88 µM, 2.92 µM and 2.89 µM, respectively.
Regarding `COC1=NN2C(OC)(c3ccccc3)c3c(-c4ccccc4)sc(-c4ccccc4)c3C2(c2ccccc2)S1` (stereo not drawn), the TGI in experiment [1], in [7], in experiment [8] and in experiment [6] was greater than 100 µM each time.
As to `C(=C1\CCC/C(=C/c2ccccc2)C1=NNc1ccccc1)/c1ccccc1`, the TGI in experiment [1], in experiment [2], in experiment [7], in experiment [4], in [5] and in [9] was greater than 100 µM in each case. The TGI in [8] and in [6] was greater than 100 µM each time.
With `CC(C)C(NC(=O)OC(C)(C)C)C(=O)N(C)C(Cc1ccccc1)C(=O)N(C)C(C(=O)N(C)C(C(=O)OCc1ccccc1)C(C)C)C(C)C` (stereo not drawn) (Boc-V[NMeF][NMeV][NMeV]-OBn; configuration not given here), the TGI in experiment [1], in [2], in experiment [7], in experiment [3], in experiment [5] and in experiment [8] was greater than 100 µM in each case. Further, the TGI in [6] was greater than 100 µM.
For the compound `Cc1cn(C2C=CC(=O)C(C)O2)c(=O)[nH]c1=O` (stereo not drawn), the TGI is 32.5 µM in experiment [1]; 25.9 µM in experiment [7]; 42.1 µM in experiment [3]; 47.9 µM in experiment [5]; 28.5 µM in experiment [8]; 29.1 µM in experiment [6].
Regarding `CC(C)C(/C=C/c1ccccc1)=N\NC(=O)N/N=C(/C=C/c1ccccc1)C(C)C`, the TGI in experiment [1] is greater than 100 µM; in experiment [2], 45.8 µM; in experiment [3], 55.4 µM; in experiment [4], greater than 100 µM; in experiment [5], greater than 100 µM; in experiment [8] it was greater than 100 µM. The compound also came in with a TGI in experiment [6] greater than 100 µM.
For `O=C1Nc2ccccc2C12CC(c1ccccc1)=NN2` (stereo not drawn), the GI50 was 5.52 µM in experiment [1]; 3.89 µM in [7]; 21.9 µM in [3]; 23.6 µM in experiment [4]; 5.53 µM in experiment [5]; 3.78 µM in [9]. In addition, in experiment [6], the GI50 is 4.38 µM. The TGI in experiment [1] was greater than 100 µM; in experiment [7], greater than 100 µM; in [3], greater than 100 µM; in experiment [4], greater than 100 µM; in experiment [5] it was 90.5 µM; in [9], 36.6 µM. In experiment [6], this compound registered a TGI greater than 100 µM.
Turning to `N/C(=N\OC(=O)NC(Cl)=C(Cl)Cl)c1cc(C(F)(F)F)cc(C(F)(F)F)c1`, the TGI turned out to be 32.2 µM in experiment [1]; 27 µM in experiment [2]; 48.6 µM in experiment [7]; 55.9 µM in [3]; 34.8 µM in [5]; 30.4 µM in [8].
For the compound `COc1cc(NCC(C#N)C#N)ccc1N=Nc1ccc([N+](=O)[O-])cc1`, the TGI in [1], in experiment [2], in [7], in [3], in experiment [4] and in experiment [5] was greater than 100 µM each time. Moreover, the TGI in experiment [9], in experiment [8] and in experiment [6] was greater than 100 µM throughout.
`O=C1C=C(N2CC2)c2ccccc2C1=O`: the GI50 in [1] is 2.32 µM; in [7], 1.93 µM; in [4] it was 1.48 µM; in [5], 1.81 µM; in experiment [9], 1.64 µM; in experiment [8], 2.15 µM. Also, the GI50 in [6] is 1.79 µM. Besides, the TGI in experiment [1] was determined as 6.23 µM; in experiment [7] it was 3.39 µM; in [4], 2.8 µM; in experiment [5], 5.13 µM; in [9], 3.08 µM; in experiment [8], 3.64 µM. Moreover, the TGI in [6] stood at 3.25 µM.
`COc1cc2ccc(CC#N)cc2cc1OC`: the TGI in experiment [1], in experiment [2], in experiment [7], in experiment [3], in experiment [4] and in experiment [9] was greater than 100 µM each time. The compound further yielded a TGI in [8] greater than 100 µM.
Turning to `O=C1c2c(c3c4ccccc4n4c3c3c2c2ccccc2n3C/C=C\C4)C(=O)N1Cc1ccccc1`, the TGI in experiment [1], in experiment [2], in experiment [7], in [3], in experiment [5] and in experiment [9] was greater than 100 µM throughout. For the same compound, the TGI in [8] and in experiment [6] was greater than 100 µM in each case.
Consider `COc1cc2c(c3oc(-c4ccc5c(c4)OCO5)c(O)c(=O)c13)CCC(C)(C)O2`, for which the TGI in [1], in experiment [2], in experiment [3], in [5], in experiment [8] and in [6] was greater than 100 µM in each case.
In the case of `O=C1c2cnccc2Cc2cccc3c2N1c1ccccc1S3`, the TGI in experiment [1] was found to be 85 µM; in experiment [7] it was 62.4 µM; in [4], 68.4 µM; in [5], 88.1 µM; in experiment [9], 65.3 µM; in experiment [6] it was 41.7 µM.
Turning to `CC(=O)Nc1ccc(-c2nnc(SCC(=O)Nc3ccccc3[N+](=O)[O-])o2)cc1`, the TGI in [1], in [7], in [3], in experiment [4], in [5] and in experiment [9] was greater than 100 µM throughout. In addition, the TGI in experiment [8] and in experiment [6] was greater than 100 µM in each case.
For `Cn1cc2ccccc2c1-c1nc(F)nc(Oc2ccc3c(c2)CC[C@@H]2C3CC[C@]3(C)C(O)CCC23)n1` (stereo partly drawn), the TGI in experiment [1] is 36.5 µM; in experiment [7] it was 39.9 µM; in [3] it was greater than 100 µM; in [4], 28.5 µM; in experiment [9], 72.3 µM; in experiment [8] it was 31.7 µM.
`COc1ccc2oc(-c3ccncc3)cc(=O)c2c1`: the TGI in experiment [1], in experiment [7], in experiment [3], in experiment [4], in experiment [5] and in experiment [9] was greater than 100 µM each time. Further, the TGI in experiment [6] was greater than 100 µM.
For the compound `O=C1C2Cc3ccccc3CN2C(=O)N1CN1CCN(CN2C(=O)C3Cc4ccccc4CN3C2=O)CC1` (stereo not drawn), the TGI in experiment [1], in experiment [2], in experiment [7], in experiment [3], in [5] and in experiment [9] was greater than 100 µM each time. For the same compound, the TGI in experiment [8] and in experiment [6] was greater than 100 µM in each case.
